Assay results: ChEMBL document CHEMBL6127078, “Discovery of 7-(1-methyl-1H-pyrazol-4-yl)-1,6-naphthyridine derivatives as potent inhibitors of rearranged during transfection (RET) and RET solvent-front mutants for overcoming selpercatinib resistance” (Eur J Med Chem, 2024)

How the values were obtained:
[1] = target: Vascular endothelial growth factor receptor 1 (Homo sapiens, UniProt P17948); test: Inhibition of FLT1 (unknown origin) by FRET-based Z-Lyte kinase assay
[2] = target: Proto-oncogene tyrosine-protein kinase receptor Ret (Homo sapiens, UniProt P07949, M918T); test: Inhibition of RET M918T mutant (unknown origin) by FRET-based ZLyte kinase assay
[3] = target: Proto-oncogene tyrosine-protein kinase receptor Ret (Homo sapiens, UniProt P07949, G810S); test: Inhibition of RET G810S mutant (unknown origin) by FRET-based ZLyte kinase assay
[4] = AUC (0 to infinity) in male Sprague-Dawley rat at 5 mg/kg, IG; type: ADME, organism-based; conditions: in vivo, po
[5] = target: Proto-oncogene tyrosine-protein kinase receptor Ret (Homo sapiens, UniProt P07949, V804L); test: Inhibition of RET V804L mutant (unknown origin) by FRET-based ZLyte kinase assay
[6] = Clearance in male Sprague-Dawley rat at 5 mg/kg, IG; type: ADME, organism-based; conditions: in vivo, po
[7] = target: Proto-oncogene tyrosine-protein kinase receptor Ret (Homo sapiens, UniProt P07949, G810R); test: Inhibition of RET G810R mutant (unknown origin) by FRET-based ZLyte kinase assay
[8] = Half life in male Sprague-Dawley rat at 1 mg/kg, iv; type: ADME, organism-based; conditions: in vivo
[9] = target: Fibroblast growth factor receptor 4 (Homo sapiens, UniProt P22455); test: Inhibition of FGFR4 (unknown origin) by FRET-based Z-Lyte kinase assay
[10] = Toxicity in mouse allografted with mouse BaF3 cells harbouring KIF5B-RET-wild type assessed as drug tolerance at 10 mg/kg BID measured upto 14 days; type: organism-based; conditions: in vivo, 336 h, time < 14 day
[11] = Cmax in male Sprague-Dawley rat at 5 mg/kg, IG; type: ADME, organism-based; conditions: in vivo, po
[12] = Apparent volume of distribution in male Sprague-Dawley rat at 5 mg/kg, IG; type: ADME, organism-based; conditions: in vivo, po
[13] = Half life in male Sprague-Dawley rat at 5 mg/kg, IG; type: ADME, organism-based; conditions: in vivo, po
[14] = target: Proto-oncogene tyrosine-protein kinase receptor Ret (Homo sapiens, UniProt P07949, V804M); test: Inhibition of RET V804M mutant (unknown origin) by FRET-based ZLyte kinase assay
[15] = AUC (0 to infinity) in male Sprague-Dawley rat at 1 mg/kg, iv; type: ADME, organism-based; conditions: in vivo
[16] = target: Vascular endothelial growth factor receptor 3 (Homo sapiens, UniProt P35916); test: Inhibition of FLT4 (unknown origin) by FRET-based Z-Lyte kinase assay
[17] = Toxicity in mouse allografted with mouse BaF3 cells harbouring KIF5B-RET-wild type assessed as mortality at 10 mg/kg BID measured upto 14 days; type: organism-based; conditions: in vivo, 336 h, time < 14 day
[18] = target: Vascular endothelial growth factor receptor 2 (Homo sapiens, UniProt P35968); test: Inhibition of KDR (unknown origin) by FRET-based Z-Lyte kinase assay
[19] = target: Proto-oncogene tyrosine-protein kinase receptor Ret (Homo sapiens, UniProt P07949); test: Inhibition of wild type RET (unknown origin) by FRET-based ZLyte kinase assay
[20] = Toxicity in mouse allografted with mouse BaF3 cells harbouring KIF5B-RET G810R mutant assessed as drug tolerance at 10 to 30 mg/kg BID measured upto 14 days; type: organism-based; conditions: in vivo, 336 h, dose 10-30 mg/kg, time < 14 day
[21] = Apparent volume of distribution in male Sprague-Dawley rat at 1 mg/kg, iv; type: ADME, organism-based; conditions: in vivo, read-out: Vz
[22] = Clearance in male Sprague-Dawley rat at 1 mg/kg, iv; type: ADME, organism-based; conditions: in vivo
[23] = Toxicity in mouse allografted with mouse BaF3 cells harbouring KIF5B-RET G810R mutant assessed as mortality at 10 to 30 mg/kg BID measured upto 14 days; type: organism-based; conditions: in vivo, 336 h, dose 10-30 mg/kg, time < 14 day
[24] = Toxicity in mouse allografted with mouse BaF3 cells harbouring KIF5B-RET G810R mutant assessed as effect on body weight loss at 10 to 30 mg/kg BID measured upto 14 days; type: organism-based; conditions: in vivo, 336 h, dose 10-30 mg/kg, time < 14 day
[25] = Tmax in male Sprague-Dawley rat at 5 mg/kg, IG; type: ADME, organism-based; conditions: in vivo, po
[26] = target: T1, Receptor-type tyrosine-protein kinase FLT3 (Homo sapiens, UniProt P36888); test: Inhibition of FLT3 (unknown origin) by FRET-based Z-Lyte kinase assay
T1 sequence (P36888 whole entry): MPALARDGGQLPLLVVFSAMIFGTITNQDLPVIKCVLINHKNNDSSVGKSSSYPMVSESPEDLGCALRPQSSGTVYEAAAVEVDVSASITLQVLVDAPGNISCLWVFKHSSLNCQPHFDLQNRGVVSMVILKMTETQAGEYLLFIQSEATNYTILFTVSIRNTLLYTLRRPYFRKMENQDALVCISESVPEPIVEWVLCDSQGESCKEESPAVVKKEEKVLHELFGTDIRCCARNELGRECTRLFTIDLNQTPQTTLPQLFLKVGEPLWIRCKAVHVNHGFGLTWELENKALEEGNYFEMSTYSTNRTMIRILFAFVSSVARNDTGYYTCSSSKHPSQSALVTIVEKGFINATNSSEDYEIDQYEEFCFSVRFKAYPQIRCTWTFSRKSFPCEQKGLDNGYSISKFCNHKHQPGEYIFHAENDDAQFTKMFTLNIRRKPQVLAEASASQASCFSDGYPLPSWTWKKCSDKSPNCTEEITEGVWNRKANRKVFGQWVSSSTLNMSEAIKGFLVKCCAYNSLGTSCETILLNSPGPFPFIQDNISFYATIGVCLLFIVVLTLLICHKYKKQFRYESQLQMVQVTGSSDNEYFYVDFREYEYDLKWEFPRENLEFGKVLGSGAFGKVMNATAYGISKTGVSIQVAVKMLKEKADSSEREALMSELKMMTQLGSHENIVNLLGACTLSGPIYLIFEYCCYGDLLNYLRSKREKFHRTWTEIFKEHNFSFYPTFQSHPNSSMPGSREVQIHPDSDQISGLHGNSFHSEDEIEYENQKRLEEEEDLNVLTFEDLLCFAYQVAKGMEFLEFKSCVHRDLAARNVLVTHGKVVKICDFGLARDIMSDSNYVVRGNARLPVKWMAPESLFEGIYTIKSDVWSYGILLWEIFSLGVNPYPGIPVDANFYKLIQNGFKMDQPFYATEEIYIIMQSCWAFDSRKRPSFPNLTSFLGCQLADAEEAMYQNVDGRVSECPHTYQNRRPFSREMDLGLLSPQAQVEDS

[27] = target: Tyrosine-protein kinase JAK2 (Homo sapiens, UniProt O60674); test: Inhibition of JAK2 (unknown origin) by FRET-based Z-Lyte kinase assay
[28] = target: Epithelial discoidin domain-containing receptor 1 (Homo sapiens, UniProt Q08345); test: Inhibition of DDR1 (unknown origin) by FRET-based Z-Lyte kinase assay
[29] = Oral bioavailability in male Sprague-Dawley rat at 5 mg/kg, IG; type: ADME, organism-based; conditions: in vivo
[30] = Toxicity in mouse allografted with mouse BaF3 cells harbouring KIF5B-RET-wild type assessed as effect on body weight loss at 10 mg/kg BID measured upto 14 days; type: organism-based; conditions: in vivo, 336 h, time < 14 day
[31] = target: Proto-oncogene tyrosine-protein kinase receptor Ret (Homo sapiens, UniProt P07949, G810C); test: Inhibition of RET G810C mutant (unknown origin) by FRET-based ZLyte kinase assay
[32] = Cmax in male Sprague-Dawley rat at 1 mg/kg, iv; type: ADME, organism-based; conditions: in vivo

Chain of Proto-oncogene tyrosine-protein kinase receptor Ret (Homo sapiens, UniProt P07949, V804M) (P07949 29-1114 V804M limits assumed): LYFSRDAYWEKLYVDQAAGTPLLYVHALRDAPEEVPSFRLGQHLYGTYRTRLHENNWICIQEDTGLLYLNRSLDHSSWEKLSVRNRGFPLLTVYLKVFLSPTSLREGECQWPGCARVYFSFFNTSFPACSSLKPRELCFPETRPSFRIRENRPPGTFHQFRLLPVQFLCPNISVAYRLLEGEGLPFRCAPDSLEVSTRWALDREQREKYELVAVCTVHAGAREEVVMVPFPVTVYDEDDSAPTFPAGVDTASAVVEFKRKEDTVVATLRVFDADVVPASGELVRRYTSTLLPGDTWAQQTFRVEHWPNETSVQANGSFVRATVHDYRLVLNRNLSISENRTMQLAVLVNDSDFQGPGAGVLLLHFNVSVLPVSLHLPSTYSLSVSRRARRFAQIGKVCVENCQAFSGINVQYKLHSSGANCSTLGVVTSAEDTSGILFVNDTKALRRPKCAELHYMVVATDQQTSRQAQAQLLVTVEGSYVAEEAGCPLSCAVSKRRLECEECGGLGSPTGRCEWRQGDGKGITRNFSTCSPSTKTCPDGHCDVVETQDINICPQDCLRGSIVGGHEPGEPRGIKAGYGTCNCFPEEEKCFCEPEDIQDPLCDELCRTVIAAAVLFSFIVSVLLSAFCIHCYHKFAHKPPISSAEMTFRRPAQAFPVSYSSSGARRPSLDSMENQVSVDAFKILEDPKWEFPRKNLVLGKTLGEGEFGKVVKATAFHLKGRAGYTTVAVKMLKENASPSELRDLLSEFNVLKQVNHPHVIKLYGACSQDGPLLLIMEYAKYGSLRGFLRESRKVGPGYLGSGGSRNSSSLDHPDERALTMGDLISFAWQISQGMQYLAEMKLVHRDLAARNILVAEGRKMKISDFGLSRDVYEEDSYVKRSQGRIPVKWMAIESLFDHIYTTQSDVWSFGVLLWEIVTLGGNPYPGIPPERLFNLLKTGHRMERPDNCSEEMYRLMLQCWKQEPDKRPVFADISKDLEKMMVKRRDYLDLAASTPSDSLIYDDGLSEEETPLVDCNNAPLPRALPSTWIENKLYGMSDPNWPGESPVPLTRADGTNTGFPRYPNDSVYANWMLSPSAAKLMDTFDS
Chain of Proto-oncogene tyrosine-protein kinase receptor Ret (Homo sapiens, UniProt P07949, G810R) (P07949 29-1114 G810R limits assumed): as the sequence (P07949 29-1114 V804M limits assumed) above, with M776V, G782R counted along it
Chain of Fibroblast growth factor receptor 4 (P22455 whole entry): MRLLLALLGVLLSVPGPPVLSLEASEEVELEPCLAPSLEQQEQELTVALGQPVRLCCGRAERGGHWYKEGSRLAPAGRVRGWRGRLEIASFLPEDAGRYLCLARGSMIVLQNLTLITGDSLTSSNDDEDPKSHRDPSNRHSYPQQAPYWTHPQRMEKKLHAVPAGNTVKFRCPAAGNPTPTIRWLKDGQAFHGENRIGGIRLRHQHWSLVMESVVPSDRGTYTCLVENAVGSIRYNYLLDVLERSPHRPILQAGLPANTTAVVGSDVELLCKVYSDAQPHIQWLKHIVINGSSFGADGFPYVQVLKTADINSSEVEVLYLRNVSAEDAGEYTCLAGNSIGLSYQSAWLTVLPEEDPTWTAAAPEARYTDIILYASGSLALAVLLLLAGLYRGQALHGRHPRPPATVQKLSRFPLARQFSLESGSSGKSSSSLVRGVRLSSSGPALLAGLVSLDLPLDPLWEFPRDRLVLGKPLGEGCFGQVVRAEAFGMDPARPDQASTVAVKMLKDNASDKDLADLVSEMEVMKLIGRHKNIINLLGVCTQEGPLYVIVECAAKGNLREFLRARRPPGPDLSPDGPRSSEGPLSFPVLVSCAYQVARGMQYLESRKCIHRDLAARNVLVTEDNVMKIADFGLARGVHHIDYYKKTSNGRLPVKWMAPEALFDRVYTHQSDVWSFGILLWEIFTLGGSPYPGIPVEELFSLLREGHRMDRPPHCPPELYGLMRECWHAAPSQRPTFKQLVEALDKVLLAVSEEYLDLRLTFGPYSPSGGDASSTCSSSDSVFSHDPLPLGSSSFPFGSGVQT
Chain of Vascular endothelial growth factor receptor 2 (P35968 whole entry): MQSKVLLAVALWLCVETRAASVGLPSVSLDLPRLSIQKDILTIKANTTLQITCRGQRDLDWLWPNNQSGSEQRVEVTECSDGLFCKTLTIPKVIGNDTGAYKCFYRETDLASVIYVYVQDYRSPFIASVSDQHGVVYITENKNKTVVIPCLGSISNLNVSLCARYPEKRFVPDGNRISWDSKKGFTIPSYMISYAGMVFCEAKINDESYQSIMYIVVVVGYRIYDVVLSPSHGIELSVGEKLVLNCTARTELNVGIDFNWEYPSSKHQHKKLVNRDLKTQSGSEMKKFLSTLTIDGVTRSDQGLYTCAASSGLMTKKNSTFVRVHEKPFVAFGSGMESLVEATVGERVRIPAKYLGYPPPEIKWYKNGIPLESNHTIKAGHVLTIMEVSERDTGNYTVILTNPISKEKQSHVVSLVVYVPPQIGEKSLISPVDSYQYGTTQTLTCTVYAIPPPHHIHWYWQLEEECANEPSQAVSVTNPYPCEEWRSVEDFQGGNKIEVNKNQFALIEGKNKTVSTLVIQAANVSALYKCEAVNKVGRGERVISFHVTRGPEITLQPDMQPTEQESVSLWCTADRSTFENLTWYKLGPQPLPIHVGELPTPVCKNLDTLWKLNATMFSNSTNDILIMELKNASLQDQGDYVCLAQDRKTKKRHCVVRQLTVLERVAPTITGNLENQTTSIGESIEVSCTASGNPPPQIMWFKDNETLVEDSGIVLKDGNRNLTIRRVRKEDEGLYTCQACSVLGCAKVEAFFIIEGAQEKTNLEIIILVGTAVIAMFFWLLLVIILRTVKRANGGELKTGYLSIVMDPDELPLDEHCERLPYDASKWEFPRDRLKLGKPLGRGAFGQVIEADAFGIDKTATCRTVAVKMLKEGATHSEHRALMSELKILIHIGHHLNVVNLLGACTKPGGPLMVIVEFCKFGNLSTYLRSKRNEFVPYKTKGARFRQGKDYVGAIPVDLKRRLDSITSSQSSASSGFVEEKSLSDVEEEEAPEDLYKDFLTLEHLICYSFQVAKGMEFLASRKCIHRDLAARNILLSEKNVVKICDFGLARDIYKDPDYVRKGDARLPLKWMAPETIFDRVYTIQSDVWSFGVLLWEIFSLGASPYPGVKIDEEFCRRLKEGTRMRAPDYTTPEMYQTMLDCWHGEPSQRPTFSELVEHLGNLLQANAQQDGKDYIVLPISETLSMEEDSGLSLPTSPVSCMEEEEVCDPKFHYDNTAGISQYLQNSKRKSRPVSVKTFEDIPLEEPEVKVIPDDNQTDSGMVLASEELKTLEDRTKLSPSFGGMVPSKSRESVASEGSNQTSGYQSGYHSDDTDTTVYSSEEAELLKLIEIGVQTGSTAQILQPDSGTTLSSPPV

With COc1ccc(CN2C3CC2CN(c2ccc(-c4nc(-c5cnn(C)c5)cc5ncccc45)cn2)C3)cc1C#N the IC50 [1] was 34.9 nM, the IC50 [2] was 0.4 nM and the IC50 [3] was 5.7 nM. For the same compound, the AUC(0-inf) [4] was 686 ng·h/mL, the IC50 [5] was 0.2 nM and the CL/F [6] was 122 mL/min/kg. It also gave an IC50 [7] of 8.3 nM, a half-life [8] of 5 h and an IC50 [9] of 113 nM. For the same compound, the Activity [10] was “Non-Toxic”, the Cmax [11] was 140 ng/mL and the Vz [12] was 48.1 L/kg. It also gave a half-life [13] of 4.6 h, an IC50 [14] of 1.8 nM and an AUC(0-inf) [15] of 451 ng·h/mL. The IC50 [16] was 5.1 nM, the Activity [17] was “Non-Toxic” and the IC50 [18] was 27.3 nM. For the same compound, the IC50 [19] was 3.2 nM, the Activity [20] was “Non-Toxic” and the Vd [21] was 17.2 L/kg. For the same compound, the clearance [22] was 40 mL/min/kg, the Activity [23] was “Non-Toxic” and the Activity [24] was “Non-Toxic”. It also gave a Tmax [25] of 1.6 h, an IC50 [26] of 52.7 nM and an IC50 [27] of 2650 nM. The IC50 [28] was 334 nM, the bioavailability [29] was 30.4% and the Activity [30] was “Non-Toxic”. The IC50 [31] was 7.1 nM and the Cmax [32] was 265 ng/mL.
